From patent US8563714B2, “Bridged spiro [2.4] heptane derivatives as ALX receptor and/or FPRL2 agonists” (Actelion Pharmaceuticals Ltd., priority 2009, dated 2013)

How the values were obtained:
human FPRL2 = molecular target: T1, human FPRL2 (Homo sapiens, UniProt P25089); assay: Intracellular calcium measurements (FLIPR), agonistic activity in HEK293-hFPRL2-Gα16 cells; type: cell-based; conditions: Fluo-4 calcium FLIPR, normalized to GLY14-Humanin 100 nM
T1 construct: expressed in transfected cells; host or cells: HEK293 (HEK293-hFPRL2-Gα16)
T1 sequence (P25089 1-353): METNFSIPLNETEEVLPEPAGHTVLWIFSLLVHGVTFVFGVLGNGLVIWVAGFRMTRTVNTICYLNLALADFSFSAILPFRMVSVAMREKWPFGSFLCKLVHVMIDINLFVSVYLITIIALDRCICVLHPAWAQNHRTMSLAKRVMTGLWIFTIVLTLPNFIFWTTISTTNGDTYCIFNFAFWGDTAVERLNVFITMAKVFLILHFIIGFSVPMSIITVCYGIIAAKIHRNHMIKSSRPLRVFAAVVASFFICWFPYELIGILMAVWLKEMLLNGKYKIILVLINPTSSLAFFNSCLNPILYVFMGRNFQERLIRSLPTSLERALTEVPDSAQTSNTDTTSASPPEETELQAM
Procedure, shortened: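 Peak values after baseline subtraction are expressed relative to 100 nM Gly14-Humanin; compounds diluted in assay buffer from 10 mM DMSO stocks.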

human ALX receptor = molecular target: T2, human ALX receptor (Homo sapiens, UniProt P25090); assay: Intracellular calcium measurements (FLIPR), agonistic activity in HEK293-hALXR-Gα16 cells; type: cell-based; conditions: Fluo-4 calcium FLIPR, normalized to WKYMVm 10 nM
T2 construct: expressed in transfected cells; host or cells: HEK293 (HEK293-hALXR-Gα16)
T2 sequence (P25090 1-351): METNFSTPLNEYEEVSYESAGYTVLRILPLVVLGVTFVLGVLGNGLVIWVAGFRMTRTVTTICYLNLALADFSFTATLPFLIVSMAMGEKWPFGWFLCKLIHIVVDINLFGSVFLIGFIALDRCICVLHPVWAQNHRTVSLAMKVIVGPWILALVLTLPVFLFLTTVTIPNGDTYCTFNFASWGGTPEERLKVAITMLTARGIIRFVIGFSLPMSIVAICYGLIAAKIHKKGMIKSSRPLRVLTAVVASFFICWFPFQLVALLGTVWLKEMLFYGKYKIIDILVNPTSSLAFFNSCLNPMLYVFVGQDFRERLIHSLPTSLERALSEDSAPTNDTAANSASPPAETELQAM
Procedure, shortened: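 Agonist-induced calcium flux was recorded by FLIPR (488/540 nm) in HEK293-hALXR-Gα16 cells pre-loaded with Fluo-4 AM (1 μM, 60 min, 37°C). Peak signal above baseline, after subtracting buffer addition, was expressed relative to WKYMVm at 10 nM final.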

| Compound | EC50 (human FPRL2) [nM] | EC50 (human ALX receptor) [nM] |
| --- | --- | --- |
| O=C(NCCCCN1CCCC1)[C@H]1[C@H](C(=O)Nc2ncc([N+](=O)[O-])s2)[C@@H]2C=C[C@H]1C21CC1 (racemic) [Example 128, (5R*)—N^5-(5-Nitro-thiazol-2-yl)-(6R*)—N^6-(4-pyrrolidin-1-yl-butyl)-(4S*,7R*)-[4,7-ethenylene-spiro[2.4]heptane]-5,6-dicarboxamide] | 3440 | 120 |
| O=C(NCCCCN1CCCC1)[C@H]1[C@H](C(=O)Nc2ncc(Cl)s2)[C@@H]2C=C[C@H]1C21CC1 (racemic) [Example 129, (5R*)—N^5-(5-Chloro-thiazol-2-yl)-(6R*)—N^6-(4-pyrrolidin-1-yl-butyl)-(4S*,7R*)-[4,7-ethenylene-spiro[2.4]heptane]-5,6-dicarboxamide] | 1190 | 121 |
| N#Cc1cnc(NC(=O)[C@H]2[C@H](C(=O)NCCCCN3CCCC3)[C@H]3C=C[C@@H]2C32CC2)s1 (racemic) [Example 130, (5R*)—N^5-(5-Cyano-thiazol-2-yl)-(6R*)—N^6-(4-pyrrolidin-1-yl-butyl)-(4S*,7R*)-[4,7-ethenylene-spiro[2.4]heptane]-5,6-dicarboxamide] | 6370 | 166 |
| O=C(NCCCCN1CCCC1)[C@H]1[C@H](C(=O)NCc2ccco2)[C@@H]2C=C[C@H]1C21CC1 (racemic) [Example 131, (5R*)—N^5-(Furan-2-yl-methyl)-(6R*)—N^6-(4-pyrrolidin-1-yl-butyl)-(4S*,7R*)-[4,7-ethenylene-spiro[2.4]heptane]-5,6-dicarboxamide] | 358 | 173 |
| O=C(NCCCCN1CCCC1)[C@H]1[C@H](C(=O)Nc2ccc(OC(F)(F)F)cc2)[C@@H]2C=C[C@H]1C21CC1 (racemic) [Example 133, (5R*)—N^5-(4-Trifluoromethoxyphenyl)-(6R*)—N^6-(4-pyrrolidin-1-yl-butyl)-(4S*,7R*)-[4,7-ethenylene-spiro[2.4]heptane]-5,6-dicarboxamide] | 122 | 263 |
| O=C(NCCCCN1CCCC1)[C@H]1[C@H](C(=O)NCCOc2ccccc2)[C@@H]2C=C[C@H]1C21CC1 (racemic) [Example 134, (5R*)—N^5-(2-Phenoxy-ethyl)-(6R*)—N^6-(4-pyrrolidin-1-yl-butyl)-(4S*,7R*)-[4,7-ethenylene-spiro[2.4]heptane]-5,6-dicarboxamide] | 612 | 319 |
| CC(C)CCNC(=O)[C@H]1[C@H](C(=O)NCCCCN2CCCC2)[C@H]2C=C[C@@H]1C21CC1 (racemic) [Example 135, (5R*)—N^5-(3-Methyl-butyl)-(6R*)—N^6-(4-pyrrolidin-1-yl-butyl)-(4S*,7R*)-[4,7-ethenylene-spiro[2.4]heptane]-5,6-dicarboxamide] | 224 | 352 |
| CCCCNC(=O)[C@H]1[C@H](C(=O)NCCCCN2CCCC2)[C@H]2C=C[C@@H]1C21CC1 (racemic) [Example 136, (5R*)—N^5-Butyl-(6R*)—N^6-(4-pyrrolidin-1-yl-butyl)-(4S*,7R*)-[4,7-ethenylene-spiro[2.4]heptane]-5,6-dicarboxamide] | 1180 | 365 |
| Cc1ccc(CNC(=O)[C@H]2[C@H](C(=O)NCCCCN3CCCC3)[C@H]3C=C[C@@H]2C32CC2)o1 (racemic) [Example 137, (5R*)—N^5-(5-Methyl-furan-2-yl-methyl)-(6R*)—N^6-(4-pyrrolidin-1-yl-butyl)-(4S*,7R*)-[4,7-ethenylene-spiro[2.4]heptane]-5,6-dicarboxamide] | 192 | 556 |
| Cc1nc2cc(NC(=O)[C@H]3[C@H](C(=O)NCCCCN4CCCC4)[C@H]4C=C[C@@H]3C43CC3)ccc2s1 (racemic) [Example 138, (5R*)—N^5-(2-Methyl-benzothiazol-5-yl)-(6R*)—N^6-(4-pyrrolidin-1-yl-butyl)-(4S*,7R*)-[4,7-ethenylene-spiro[2.4]heptane]-5,6-dicarboxamide] | 332 | 570 |
| O=C(NCCCCN1CCCC1)[C@H]1[C@H](C(=O)NCCc2ccccc2)[C@@H]2C=C[C@H]1C21CC1 (racemic) [Example 139, (5R*)—N^5-(2-Phenyl-ethyl)-(6R*)—N^6-(4-pyrrolidin-1-yl-butyl)-(4S*,7R*)-[4,7-ethenylene-spiro[2.4]heptane]-5,6-dicarboxamide] | 152 | 731 |
| CC(=O)CCCNC(=O)[C@H]1[C@H](C(=O)NCCCCN2CCCC2)[C@H]2C=C[C@@H]1C21CC1 (racemic) [Example 140, (5R*)—N^5-(4-oxo-pentyl)-(6R*)—N^6-(4-pyrrolidin-1-yl-butyl)-(4S*,7R*)-[4,7-ethenylene-spiro[2.4]heptane]-5,6-dicarboxamide] | 1310 | 748 |
| O=C(NCCCCN1CCCC1)[C@H]1[C@H](C(=O)Nc2cnc(Cl)nc2)[C@@H]2C=C[C@H]1C21CC1 (racemic) [Example 142, (5R*)—N^5-(2-Chloro-pyrimidin-5-yl)-(6R*)—N^6-(4-pyrrolidin-1-yl-butyl)-(4S*,7R*)-[4,7-ethenylene-spiro[2.4]heptane]-5,6-dicarboxamide] | 182 | 1330 |
| O=C(NCCCCN1CCCC1)[C@H]1[C@H](C(=O)NCc2cccc(Br)c2)[C@@H]2C=C[C@H]1C21CC1 (racemic) [Example 143, (5R*)—N^5-(3-Bromophenyl-methyl)-(6R*)—N^6-(4-pyrrolidin-1-yl-butyl)-(4S*,7R*)-[4,7-ethenylene-spiro[2.4]heptane]-5,6-dicarboxamide] | 94 | 2060 |

Other lines, results leading:

| EC50 (human FPRL2) [nM] | EC50 (human ALX receptor) [nM] | Compound |
| --- | --- | --- |
| 324 | 2270 | O=C(NCCCCN1CCCC1)[C@H]1[C@H](C(=O)Nc2nc3ccccc3s2)[C@@H]2C=C[C@H]1C21CC1 (racemic) [Example 144, (5R*)—N^5-(Benzothiazol-2-yl)-(6R*)—N^6-(4-pyrrolidin-1-yl-butyl)-(4S*,7R*)-[4,7-ethenylene-spiro[2.4]heptane]-5,6-dicarboxamide] |
| 647 | 3650 | CC(C)(C)c1cc(NC(=O)[C@H]2[C@H](C(=O)NCCCCN3CCCC3)[C@H]3C=C[C@@H]2C32CC2)no1 (racemic) [Example 145, (5R*)—N^5-(5-tert-Butyl-isoxazol-3-yl)-(6R*)—N^6-(4-pyrrolidin-1-yl-butyl)-(4S*,7R*)-[4,7-ethenylene-spiro[2.4]heptane]-5,6-dicarboxamide] |
| 337 | 4420 | Cc1nsc2ccc(NC(=O)[C@H]3[C@H](C(=O)NCCCCN4CCCC4)[C@H]4C=C[C@@H]3C43CC3)cc12 (racemic) [Example 146, (5R*)—N^5-(3-Methyl-benzo[d]isothiazol-5-yl)-(6R*)—N^6-(4-pyrrolidin-1-yl-butyl)-(4S*,7R*)-[4,7-ethenylene-spiro[2.4]heptane]-5,6-dicarboxamide] |
| 837 | 7410 | O=C(NCCCCN1CCCC1)[C@H]1[C@H](C(=O)Nc2ccc3[nH]ccc3c2)[C@@H]2C=C[C@H]1C21CC1 (racemic) [Example 147, (5R*)—N^5-(1H-Indol-5-yl)-(6R*)—N^6-(4-pyrrolidin-1-yl-butyl)-(4S*,7R*)-[4,7-ethenylene-spiro[2.4]heptane]-5,6-dicarboxamide] |
| 226 | 7600 | O=C(NCCCCN1CCCC1)[C@H]1[C@H](C(=O)Nc2nc3ccc(F)cc3s2)[C@@H]2C=C[C@H]1C21CC1 (racemic) [Example 148, (5R*)—N^5-(6-Fluoro-benzothiazol-2-yl)-(6R*)—N^6-(4-pyrrolidin-1-yl-butyl)-(4S*,7R*)-[4,7-ethenylene-spiro[2.4]heptane]-5,6-dicarboxamide] |
| 691 | 8090 | CCC(CC)CNC(=O)[C@H]1[C@H](C(=O)NCCCCN2CCCC2)[C@H]2C=C[C@@H]1C21CC1 (racemic) [Example 149, (5R*)—N^5-(2-Ethyl-butyl)-(6R*)—N^6-(4-pyrrolidin-1-yl-butyl)-(4S*,7R*)-[4,7-ethenylene-spiro[2.4]heptane]-5,6-dicarboxamide] |
| 110 | 8440 | O=C(NCCCCN1CCCC1)[C@H]1[C@H](C(=O)Nc2nc(-c3ccc(Cl)cc3)cs2)[C@@H]2C=C[C@H]1C21CC1 (racemic) [Example 150, (5R*)—N^5-(4-(4-Chlorophenyl)-thiazol-2-yl)-(6R*)—N^6-(4-pyrrolidin-1-yl-butyl)-(4S*,7R*)-[4,7-ethenylene-spiro[2.4]heptane]-5,6-dicarboxamide] |
